In one experiment the target is T1, Nav1.7 (or SCN9A) channel; HEK cells stably transfected with hSCN9A (Homo sapiens, UniProt Q15858).
T1 construct: expressed in transfected cells
T1 sequence (Q15858 whole entry): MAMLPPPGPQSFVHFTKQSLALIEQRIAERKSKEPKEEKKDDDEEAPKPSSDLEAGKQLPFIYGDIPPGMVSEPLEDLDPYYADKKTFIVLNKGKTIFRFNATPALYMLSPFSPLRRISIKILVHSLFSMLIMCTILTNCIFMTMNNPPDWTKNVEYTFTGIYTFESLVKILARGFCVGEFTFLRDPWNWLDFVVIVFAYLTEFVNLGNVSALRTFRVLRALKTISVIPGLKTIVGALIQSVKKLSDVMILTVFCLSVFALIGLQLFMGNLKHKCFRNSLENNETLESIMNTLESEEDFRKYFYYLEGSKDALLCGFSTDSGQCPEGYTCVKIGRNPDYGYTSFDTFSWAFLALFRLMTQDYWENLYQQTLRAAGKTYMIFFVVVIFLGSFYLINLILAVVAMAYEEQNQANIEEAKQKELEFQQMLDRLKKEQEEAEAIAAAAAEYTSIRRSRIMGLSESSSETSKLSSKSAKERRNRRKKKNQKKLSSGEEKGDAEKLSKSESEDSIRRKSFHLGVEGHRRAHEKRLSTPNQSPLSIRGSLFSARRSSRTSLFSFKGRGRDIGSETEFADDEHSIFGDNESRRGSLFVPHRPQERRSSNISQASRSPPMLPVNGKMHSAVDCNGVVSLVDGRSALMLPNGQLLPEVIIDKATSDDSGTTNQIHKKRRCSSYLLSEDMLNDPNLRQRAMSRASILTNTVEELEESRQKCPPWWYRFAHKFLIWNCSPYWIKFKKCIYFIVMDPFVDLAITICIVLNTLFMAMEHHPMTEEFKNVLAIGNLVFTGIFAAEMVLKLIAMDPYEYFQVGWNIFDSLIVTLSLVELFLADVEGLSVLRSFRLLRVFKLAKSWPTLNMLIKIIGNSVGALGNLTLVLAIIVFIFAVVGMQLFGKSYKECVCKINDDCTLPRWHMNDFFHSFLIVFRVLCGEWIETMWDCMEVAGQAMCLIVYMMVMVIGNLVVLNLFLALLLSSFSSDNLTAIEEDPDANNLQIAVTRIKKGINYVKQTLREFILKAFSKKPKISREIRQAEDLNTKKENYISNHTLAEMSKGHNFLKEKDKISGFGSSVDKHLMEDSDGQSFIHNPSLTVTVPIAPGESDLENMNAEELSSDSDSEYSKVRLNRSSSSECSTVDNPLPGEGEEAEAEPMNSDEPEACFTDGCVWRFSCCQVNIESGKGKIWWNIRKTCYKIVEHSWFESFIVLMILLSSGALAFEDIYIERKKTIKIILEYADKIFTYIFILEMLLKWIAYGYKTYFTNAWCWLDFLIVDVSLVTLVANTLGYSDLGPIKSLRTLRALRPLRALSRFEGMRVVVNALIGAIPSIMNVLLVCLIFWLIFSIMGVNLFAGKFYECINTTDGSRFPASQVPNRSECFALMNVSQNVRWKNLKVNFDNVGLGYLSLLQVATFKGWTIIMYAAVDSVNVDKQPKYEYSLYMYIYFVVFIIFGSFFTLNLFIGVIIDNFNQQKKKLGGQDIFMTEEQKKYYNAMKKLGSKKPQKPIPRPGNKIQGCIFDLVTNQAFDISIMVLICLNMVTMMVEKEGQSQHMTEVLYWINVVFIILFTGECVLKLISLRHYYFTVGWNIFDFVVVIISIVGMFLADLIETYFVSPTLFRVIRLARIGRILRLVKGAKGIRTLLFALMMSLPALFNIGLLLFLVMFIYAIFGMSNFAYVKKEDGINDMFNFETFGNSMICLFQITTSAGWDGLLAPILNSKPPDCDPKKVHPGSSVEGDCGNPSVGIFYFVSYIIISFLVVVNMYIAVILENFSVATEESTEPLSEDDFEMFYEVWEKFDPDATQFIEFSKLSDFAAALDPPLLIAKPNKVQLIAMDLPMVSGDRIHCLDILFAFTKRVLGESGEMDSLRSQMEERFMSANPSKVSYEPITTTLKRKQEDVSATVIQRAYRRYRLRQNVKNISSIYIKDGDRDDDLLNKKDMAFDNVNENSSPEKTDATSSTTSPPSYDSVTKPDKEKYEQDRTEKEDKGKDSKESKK
Briefly: Nav1.7 block, PatchXpress 7000 automated whole-cell voltage clamp, estimated IC50 (EIC50). The format is cell-based. To be noted: PatchXpress platform; hSCN9A HEK cells held at V1/2 of inactivation; estimated IC50.
As usually defined, the IC50 is the concentration that inhibits the measured activity by half. For `CC(C)(C)n1ccc(-c2c(F)cccc2Oc2ccc(S(=O)(=O)Nc3ncns3)cc2C#N)n1` [Example 84, 4-[2-(1-tert-Butyl-1H-pyrazol-3-yl)-3-fluoro-phenoxy]-3-cyano-N-[1,2,4]thiadiazol-5-yl-benzene-sulfonamide], the concentration for half-maximal inhibition (IC50) is recorded as more than 10 µM.

With `Cc1cccc(-c2cc(F)ccc2F)c1Oc1ccc(S(=O)(=O)Nc2ncns2)cc1C#N` [Example 31, 3-cyano-4-[(2′,5′-difluoro-3-methylbiphenyl-2-yl)oxy]-N-1,2,4-thiadiazol-5-ylbenzenesulfonamide], the IC50 is 16.2 µM.

In the case of `COc1nsc(NS(=O)(=O)c2ccc(Oc3ccccc3-c3ccccc3)c(C#N)c2)n1` [Example 96, 4-(biphenyl-2-yloxy)-3-cyano-N-(3-methoxy-1,2,4-thiadiazol-5-yl)benzenesulfonamide], the IC50 is 12.5 µM.

As to `Cn1nccc1-c1cc(Br)ccc1Oc1ccc(S(=O)(=O)Nc2nccs2)cc1F` [Example 226, 4-(4-bromo-2-(1-methyl-1H-pyrazol-5-yl)phenoxy)-3-fluoro-N-(thiazol-2-yl)benzenesulfonamide], the IC50 is 0.03 µM.

For `O=S(=O)(Nc1ncns1)c1ccc(Oc2ccn(Cc3ccc(Cl)cc3)n2)c(C(F)(F)F)c1` [Example 204, 4-{[1-(4-chlorobenzyl)-1H-pyrazol-3-yl]oxy}-N-1,2,4-thiadiazol-5-yl-3-(trifluoromethyl)benzenesulfonamide], the IC50 was 3.14 µM.

In the case of `O=S(=O)(Nc1ncns1)c1ccc(Oc2cc(C(F)(F)F)nn2-c2cc(F)ccc2F)c(F)c1` [Example 253, 4-[2-(2,5-difluoro-phenyl)-5-trifluoromethyl-2H-pyrazol-3-yloxy]-3-fluoro-N-1,2,4-thiadiazol-5-yl-benzenesulfonamide], the IC50 was 0.63 µM.

As to `N#Cc1cc(S(=O)(=O)Nc2ncns2)ccc1Oc1cnc(N)nc1-c1ccc(Cl)cc1` [Example 18, 4-{[2-amino-4-(4-chlorophenyl)pyrimidin-5-yl]oxy}-3-cyano-N-1,2,4-thiadiazol-5-ylbenzenesulfonamide], the half-maximal inhibitory concentration (IC50) is recorded as more than 10 µM.

The same experiment, now with this note: estimated IC50; hSCN9A HEK cells, PatchXpress platform; Examples 283-814.
As for `N#Cc1cc(S(=O)(=O)Nc2nccs2)ccc1Oc1ccc(-n2ccc(C(F)(F)F)n2)cc1C(F)(F)F` [Example 492, 3-cyano-N-1,3-thiazol-2-yl-4-{2-(trifluoromethyl)-4-[3-(trifluoromethyl)-1H-pyrazol-1-yl]phenoxy}benzenesulfonamide], the IC50 was 1.5 µM.

For the compound `N#Cc1cc(S(=O)(=O)Nc2nccs2)ccc1Oc1ccc(-n2ccc(C(F)(F)F)n2)nc1` [Example 643, 3-cyano-N-1,3-thiazol-2-yl-4-({6-[3-(trifluoromethyl)-1H-pyrazol-1-yl]pyridin-3-yl}oxy)benzenesulfonamide], the IC50 is 2.1 µM.

For the compound `N#Cc1cc(S(=O)(=O)Nc2ncns2)ccc1Oc1ccccc1-c1cn[nH]c1` [Example 385, 4-(2-(1H-pyrazol-4-yl)phenoxy)-3-cyano-N-(1,2,4-thiadiazol-5-yl)benzenesulfonamide], the IC50 is 0.067 µM.

In the case of `O=S(=O)(Nc1ncns1)c1cc(Cl)c(Oc2ccc(F)cc2-c2ccnn2C2CNC2)cc1F` [Example 810, 4-[2-(1-azetidin-3-yl-1H-pyrazol-5-yl)-4-fluorophenoxy]-5-chloro-2-fluoro-N-1,2,4-thiadiazol-5-ylbenzenesulfonamide], the IC50 is 0.0038 µM.

In the case of `N#Cc1cc(S(=O)(=O)Nc2nccs2)ccc1Oc1ccc(Oc2ccccc2)nc1` [Example 644, 3-cyano-4-[(6-phenoxypyridin-3-yl)oxy]-N-1,3-thiazol-2-ylbenzenesulfonamide], the IC50 was 2.6 µM.

`Cc1cc(S(=O)(=O)Nc2cscn2)c(F)cc1Oc1ccc(F)cc1-c1ccnn1C` [Example 626, 2-fluoro-4-[4-fluoro-2-(1-methyl-1H-pyrazol-5-yl)phenoxy]-5-methyl-N-1,3-thiazol-4-ylbenzenesulfonamide]: the IC50 was 0.12 µM.

Regarding `CCn1nc(C(F)(F)F)cc1-c1ccc(Oc2ccc(S(=O)(=O)Nc3ncc(F)cn3)cc2C#N)cc1` [Example 338, 3-cyano-4-{4-[1-ethyl-3-(trifluoromethyl)-1H-pyrazol-5-yl]phenoxy}-N-(5-fluoropyrimidin-2-yl)benzenesulfonamide], the IC50 was 1.8 µM.

As for `COc1cc(-c2cc(Cl)ccc2Oc2ccc(S(=O)(=O)Nc3nccs3)cc2C#N)n(C)n1` [Example 439, 4-[4-chloro-2-(3-methoxy-1-methyl-1H-pyrazol-5-yl)phenoxy]-3-cyano-N-1,3-thiazol-2-ylbenzenesulfonamide], the IC50 is 0.49 µM.

In the case of `Cn1nccc1-c1cc(C2CC2)ccc1Oc1ccc(S(=O)(=O)Nc2nccs2)cc1C#N` [Example 545, 3-cyano-4-[4-cyclopropyl-2-(1-methyl-1H-pyrazol-5-yl)phenoxy]-N-1,3-thiazol-2-ylbenzenesulfonamide], the IC50 was 0.023 µM.

Turning to `CCn1nc(C(F)(F)F)cc1-c1ccc(Oc2ccc(S(=O)(=O)Nc3ccc(C#N)cn3)cc2C#N)cc1` [Example 343, 3-cyano-N-(5-cyanopyridin-2-yl)-4-{4-[1-ethyl-3-(trifluoromethyl)-1H-pyrazol-5-yl]phenoxy}benzenesulfonamide], the IC50 is given as more than 10 µM.

Regarding `Cc1[nH]ncc1-c1cc(Cl)ccc1Oc1ccc(S(=O)(=O)Nc2nccs2)cc1C#N` [Example 546, 4-[4-chloro-2-(5-methyl-1H-pyrazol-4-yl)phenoxy]-3-cyano-N-1,3-thiazol-2-ylbenzenesulfonamide], the 50% inhibitory concentration (IC50) was 0.02 µM.

Turning to `N#Cc1cc(S(=O)(=O)Nc2cscn2)ccc1Oc1ccc(Cl)cc1-c1ccnn1C1CNC1` [Example 809, 4-[2-(1-azetidin-3-yl-1H-pyrazol-5-yl)-4-chlorophenoxy]-3-cyano-N-1,3-thiazol-4-ylbenzenesulfonamide], the IC50 was 0.038 µM.

Staying with this experiment, now noted: estimated IC50; hSCN9A HEK cells, PatchXpress platform; Examples 815-1040.
Regarding `COCCn1ccc(-c2cc(Cl)ccc2Oc2cc(F)c(S(=O)(=O)Nc3nncs3)cc2Cl)n1` [Example 819, 5-chloro-4-{4-chloro-2-[1-(2-methoxyethyl)-1H-pyrazol-3-yl]phenoxy}-2-fluoro-N-1,3,4-thiadiazol-2-ylbenzenesulfonamide], the IC50 is 2.4 µM.

As to `N#Cc1cc(S(=O)(=O)Nc2nccs2)ccc1Oc1ccc(-c2cnn(CC(F)(F)F)c2N)cc1` [Example 986, 4-{4-[5-amino-1-(2,2,2-trifluoroethyl)-1H-pyrazol-4-yl]phenoxy}-3-cyano-N-1,3-thiazol-2-ylbenzenesulfonamide], the IC50 is more than 10 µM.

Regarding `O=S(=O)(Nc1ncns1)c1ccc(Oc2ccc(C(F)(F)F)cc2-c2ccnnc2)c(Cl)c1` [Example 928, 3-chloro-4-[2-pyridazin-4-yl-4-(trifluoromethyl)phenoxy]-N-1,2,4-thiadiazol-5-ylbenzenesulfonamide], the IC50 was 0.0036 µM.

Consider `N#Cc1cc(S(=O)(=O)Nc2ncns2)ccc1Oc1ccc(Cl)cc1-c1ccsn1` [Example 905, 4-(4-chloro-2-isothiazol-3-ylphenoxy)-3-cyano-N-1,2,4-thiadiazol-5-ylbenzenesulfonamide], for which the 50% inhibitory concentration (IC50) was 0.19 µM.

Turning to `N#Cc1cc(S(=O)(=O)Nc2cccs2)ccc1Oc1ccccc1-c1ccccc1` [Example 1007, 4-(biphenyl-2-yloxy)-3-cyano-N-2-thienylbenzenesulfonamide], the IC50 is 3.3 µM.

Turning to `N#Cc1cc(S(=O)(=O)Nc2ncns2)ccc1Oc1ccc(F)cc1C1CCOCC1` [Example 842, 3-cyano-4-[4-fluoro-2-(tetrahydro-2H-pyran-4-yl)phenoxy]-N-1,2,4-thiadiazol-5-ylbenzenesulfonamide], the IC50 is 0.096 µM.
